Results reported in patent US20240124538A1, “Modulation of Wnt5a to Treat Glaucoma” (The Regents of the University of California, priority 2017, published 2024).

Assays:
Wnt5a [1] = target: T1, Wnt5a (Mus musculus, UniProt P22725); test: Mouse model of pathogenic IOP, inhibitor delivered by eye drops; assay type: in vivo
T1 construct: from tissue; host or cells: eye of living mice (Schlemm's canal / anterior chamber)
T1 sequence (P22725 62-380): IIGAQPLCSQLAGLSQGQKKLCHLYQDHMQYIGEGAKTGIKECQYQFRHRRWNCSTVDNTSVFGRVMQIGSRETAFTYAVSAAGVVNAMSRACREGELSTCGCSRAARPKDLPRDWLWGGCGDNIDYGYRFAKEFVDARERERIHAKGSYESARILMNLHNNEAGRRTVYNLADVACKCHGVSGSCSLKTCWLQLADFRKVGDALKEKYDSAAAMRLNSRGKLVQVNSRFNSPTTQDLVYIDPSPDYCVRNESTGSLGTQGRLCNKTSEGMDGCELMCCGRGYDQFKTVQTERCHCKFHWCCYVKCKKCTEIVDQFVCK
Description: In one protocol subconjuctival injection of siRNA is performed as described by Yuen et al. (2014, Invest Ophthalmol Vis Sci. 2014; 55:3320-3327). Mice are randomly selected to receive subconjunctival injection of 5 uL (0.2 1g/uL) siRNA or control twice a week for 2 weeks. In a second protocol intracameral injection of siRNA is performed as described by Tam et al. (2017, Scientific Reports 7, 40717). Mice are anaesthetized by intra-peritoneal injection, and pupils are dilated. A pulled blunt-ended micro-glass needle is first used to puncture the cornea to withdraw aqueous humour Immediately after puncture, a pulled blunt-ended micro-glass needle attached to a 10 μl syringe is inserted through the puncture, and 1.5 μl of PBS containing 1 μg siRNA is administered into the anterior chamber. Contralateral eyes receive an identical injection of 1.5 μl containing the same concentration of scrambled siRNA.

Wnt5a [2] = target: T2, Wnt5a (Oryctolagus cuniculus, UniProt Q27Q52); test: Rabbit model of pathogenic IOP, inhibitor delivered by eye drops; assay type: in vivo
T2 construct: New Zealand White rabbits receive a topical administration; from tissue; host or cells: eye of living New Zealand White rabbits
T2 sequence (Q27Q52 62-380): T1 sequence (P22725 62-380)
Excerpt: To assess the effect of siRNA delivered by eye drops on IOP, we developed an additional protocol based on the methods of Martinez et al. (Mol Ther. 2014 January; 22(1):81-91), wherein New Zealand White rabbits receive a topical administration of either 20 nmol/day of siRNA or phosphate-buffered saline (PBS) over a period of 4 consecutive days.

[3] = Shinonaga et al. 2009; cited from earlier work
WNT-5A = details: Shinonaga et al. 2009; cited from earlier work

Q: Which results are given for 6,7-dihydro-10alpha-hydroxy radicicol?
A: therapy of pathogenic IOP (Wnt5a [1]): effective therapies for pathogenic IOP; therapy of pathogenic IOP (Wnt5a [2]): effective therapies for pathogenic IOP; toxicity [3]: relatively low toxicity; WNT-5A expression inhibition (WNT-5A): potent WNT-5A expression inhibitor
